Source: ChEMBL document CHEMBL5360556, “An overview of compound properties, multiparameter optimization, and computational drug design methods for PARP-1 inhibitor drugs” (Eur J Med Chem, 2023)
In brackets after ≈: the same amount, converted by molar mass. One block for each compound: values may come before it.

What was measured:
[1] = target: T1, Poly [ADP-ribose] polymerase 1 (Homo sapiens, UniProt P09874); assay: Inhibition of PARP1 (unknown origin) incubated for 60 mins by absorbance based analysis
[2] = target: T1, Poly [ADP-ribose] polymerase 1; assay: Inhibition of PARP1 (unknown origin) incubated for 60 mins by ELISA assay
[3] = target: T1, Poly [ADP-ribose] polymerase 1; assay: Inhibition of PARP1 (unknown origin)
[4] = target: T1, Poly [ADP-ribose] polymerase 1; assay: Inhibition of PARP1 CD (unknown origin) by colorimetric assay
[5] = target: T1, Poly [ADP-ribose] polymerase 1; assay: Inhibition of PARP1 (unknown origin) using Streptavidin-HRP as substrate incubated for 1 hr by absorbance based analysis
[6] = Lipophilicity, logD of compound at pH 7.4; type: physicochemical; details: buffer
[7] = Lipophilicity, logP of compound; type: physicochemical; details: octanol/water
[8] = Dissociation constant, pKa of the compound under acidic condition; type: physicochemical
[9] = Dissociation constant, pKa of the compound under basic condition; type: physicochemical
[10] = Solubility of the compound; type: physicochemical
[11] = target: Voltage-gated inwardly rectifying potassium channel KCNH2 (Homo sapiens, UniProt Q12809); assay: Inhibition of hERG; type: toxicity
Voltage-gated inwardly rectifying potassium channel KCNH2, sequence (Q12809 whole entry): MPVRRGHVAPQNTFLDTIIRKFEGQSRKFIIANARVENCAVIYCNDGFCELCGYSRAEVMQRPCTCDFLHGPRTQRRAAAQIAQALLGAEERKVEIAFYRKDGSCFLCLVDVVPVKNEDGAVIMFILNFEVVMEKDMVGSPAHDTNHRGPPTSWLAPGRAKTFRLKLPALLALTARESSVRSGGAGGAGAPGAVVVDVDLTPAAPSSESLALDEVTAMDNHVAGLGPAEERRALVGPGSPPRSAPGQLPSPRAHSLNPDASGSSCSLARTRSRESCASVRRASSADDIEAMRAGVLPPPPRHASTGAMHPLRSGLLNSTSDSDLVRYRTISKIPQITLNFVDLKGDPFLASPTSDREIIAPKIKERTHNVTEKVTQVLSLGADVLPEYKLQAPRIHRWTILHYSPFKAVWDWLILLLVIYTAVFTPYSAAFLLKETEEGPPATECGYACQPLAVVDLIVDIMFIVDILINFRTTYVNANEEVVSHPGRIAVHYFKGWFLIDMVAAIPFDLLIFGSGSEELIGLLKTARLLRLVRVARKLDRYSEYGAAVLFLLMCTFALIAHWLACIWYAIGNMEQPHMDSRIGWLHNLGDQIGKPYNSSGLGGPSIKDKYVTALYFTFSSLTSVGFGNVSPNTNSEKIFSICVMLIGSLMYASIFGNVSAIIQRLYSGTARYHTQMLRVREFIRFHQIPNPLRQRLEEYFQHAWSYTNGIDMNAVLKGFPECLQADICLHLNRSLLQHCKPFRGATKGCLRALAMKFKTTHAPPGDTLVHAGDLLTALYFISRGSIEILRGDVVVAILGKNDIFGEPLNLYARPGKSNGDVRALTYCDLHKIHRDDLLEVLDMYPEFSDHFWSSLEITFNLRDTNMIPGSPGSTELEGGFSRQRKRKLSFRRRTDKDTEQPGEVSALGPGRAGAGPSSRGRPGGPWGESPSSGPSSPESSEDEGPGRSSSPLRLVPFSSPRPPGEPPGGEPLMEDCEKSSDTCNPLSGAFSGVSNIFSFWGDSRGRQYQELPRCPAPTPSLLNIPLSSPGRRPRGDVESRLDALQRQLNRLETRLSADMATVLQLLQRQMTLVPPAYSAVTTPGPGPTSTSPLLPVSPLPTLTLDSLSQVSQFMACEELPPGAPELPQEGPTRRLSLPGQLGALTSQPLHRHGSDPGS

T1 sequence (P09874 whole entry): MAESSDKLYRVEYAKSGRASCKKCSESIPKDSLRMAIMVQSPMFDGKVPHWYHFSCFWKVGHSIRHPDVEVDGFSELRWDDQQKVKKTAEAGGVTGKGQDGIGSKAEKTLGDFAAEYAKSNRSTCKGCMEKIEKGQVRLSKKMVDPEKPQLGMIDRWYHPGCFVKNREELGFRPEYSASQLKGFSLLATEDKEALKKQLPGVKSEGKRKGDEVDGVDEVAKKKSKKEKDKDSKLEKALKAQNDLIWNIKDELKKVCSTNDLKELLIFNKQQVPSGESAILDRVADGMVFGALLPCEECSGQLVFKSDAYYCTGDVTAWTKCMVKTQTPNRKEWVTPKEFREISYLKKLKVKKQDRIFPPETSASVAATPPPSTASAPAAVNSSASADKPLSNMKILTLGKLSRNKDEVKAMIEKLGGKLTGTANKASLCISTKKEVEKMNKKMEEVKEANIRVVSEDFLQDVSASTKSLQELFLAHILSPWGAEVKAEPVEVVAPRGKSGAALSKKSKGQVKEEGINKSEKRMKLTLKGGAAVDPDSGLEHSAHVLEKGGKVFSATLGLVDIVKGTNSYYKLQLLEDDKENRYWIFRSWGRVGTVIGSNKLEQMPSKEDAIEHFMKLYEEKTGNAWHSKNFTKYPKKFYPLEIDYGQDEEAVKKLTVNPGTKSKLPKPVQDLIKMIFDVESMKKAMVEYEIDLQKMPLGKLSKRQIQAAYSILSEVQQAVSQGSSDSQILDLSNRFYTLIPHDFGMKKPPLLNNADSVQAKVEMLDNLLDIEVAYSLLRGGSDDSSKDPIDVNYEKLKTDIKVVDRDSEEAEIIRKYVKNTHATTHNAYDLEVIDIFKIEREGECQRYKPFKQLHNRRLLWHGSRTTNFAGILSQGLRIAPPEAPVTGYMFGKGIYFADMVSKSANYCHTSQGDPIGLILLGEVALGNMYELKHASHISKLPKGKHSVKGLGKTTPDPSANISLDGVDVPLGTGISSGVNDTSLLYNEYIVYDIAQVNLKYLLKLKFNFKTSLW

IC50 [1]: 1600 nM
SMILES: C[N+]1(C)CCc2cc(O)c(O)cc2[C@H]1Cc1ccc(O)c(O)c1

IC50 [2]: 560 nM
SMILES: O=C(CSc1nc2sc3c(c2c(=O)[nH]1)CCC3)N(CCO)CCO

IC50 [3]: 19 nM
SMILES: O=C1CCc2cc(-c3ccccc3F)ccc2C2(CCCCC2)N1

IC50 [4]: 2.31 nM
SMILES: CC1=C(NN)SC(NNS(=O)(=O)c2ccc3[nH]c(=O)c(=O)[nH]c3c2)N1C(=O)c1ccccc1 (configuration not stated)

IC50 [4]: 8.25 nM
SMILES: CC(=O)C1=C(C)N(C(=O)c2ccccc2)C(NNS(=O)(=O)c2ccc3[nH]c(=O)c(=O)[nH]c3c2)S1 (configuration not stated)

IC50 [5]: 36.7 nM
SMILES: O=C(NN1CCCC1)c1cc(Cc2n[nH]c(=O)c3cccnc23)ccc1F

IC50 [1]: 960 nM
SMILES: C[N+]12CCc3cc(O)c(O)cc3C1Cc1cc3c(cc12)OCO3 (configuration not stated)

IC50 [4]: 8.73 nM
SMILES: Cc1cc(O)nn1S(=O)(=O)c1ccc2[nH]c(=O)c(=O)[nH]c2c1

IC50 [2]: 63000 nM
SMILES: CCN(c1ccccc1)S(=O)(=O)c1ccc(NC(=O)C2CC(=O)c3cc(C)c(C)cc3O2)cc1 (configuration not stated)

IC50 [4]: 6.35 nM
SMILES: CC1=CSC(NNS(=O)(=O)c2ccc3[nH]c(=O)c(=O)[nH]c3c2)N1C(=O)c1ccccc1 (configuration not stated)

SMILES: Oc1ccc(C2CNCc3c(O)cccc32)cc1O (racemic)
IC50 [1]: 240 nM

logD [6]: -0.11
logP [7]: 2.47
pKa [8]: 14
pKa [9]: 10.1
solubility [10]: 700 µg/mL (≈ 2180 µM)
SMILES: NC(=O)c1cccc2cn(-c3ccc([C@@H]4CCCNC4)cc3)nc12 [NIRAPARIB]
IC50 [11]: 10000 nM

logD [6]: 1.96
logP [7]: 1.96
pKa [8]: 9.96
pKa [9]: 0.9
SMILES: O=C(c1cc(Cc2n[nH]c(=O)c3ccccc23)ccc1F)N1CCN(C(=O)C2CC2)CC1 [OLAPARIB]

SMILES: CNCc1ccc(-c2[nH]c3cc(F)cc4c3c2CCNC4=O)cc1 [RUCAPARIB]
logD [6]: 0.55
logP [7]: 2.45
pKa [8]: 13.2
pKa [9]: 9.32
solubility [10]: 1000 µg/mL (≈ 3090 µM)
IC50 [11]: 23000 nM

logD [6]: 2.11
logP [7]: 2.11
pKa [8]: 9.48
pKa [9]: 1.66
solubility [10]: 17 µg/mL (≈ 44.7 µM)
SMILES: Cn1ncnc1[C@H]1c2n[nH]c(=O)c3cc(F)cc(c23)N[C@@H]1c1ccc(F)cc1 [TALAZOPARIB]
